Assay [1] addresses T1, BIR3 domain of XIAP (Homo sapiens, UniProt P98170). Briefly: Isothermal titration calorimetry (ITC) against the BIR3 domain of XIAP. The format is binding. More on the design: human BIR3 domain of XIAP fragment (residues 253-347) and an N-terminal His tag; His tag (N); made in house; host or cells: E. coli BL21(DE3) Gold. The settings on record: figure legends and table titles. In general terms: In ITC the heat of successive injections is recorded.

Assay [2] addresses BIR3 domain of cIAP2. The settings on record: legend of FIG. 13; read-out: K is (Ki) for the BIR3 domain of cIAP2; cited from earlier work.
Assay [3] deals with BIR3 domain of cIAP1. The settings on record: legend of FIG. 13; read-out: K is (Ki) for the BIR3 domain of cIAP1; cited from earlier work.
The target in assay [4] is BIR3 domain of XIAP. The settings on record: legend of FIG. 13; read-out: K is (Ki) for the BIR3 domain of XIAP; cited from earlier work.
Assay [5] addresses BIR3 domain of cIAP1 (Homo sapiens, UniProt Q13490).
Assay [6] deals with BIR3 domain of cIAP2 (Homo sapiens, UniProt Q13489). The settings on record: for activity against the Bir3 domain of cIAP2: Example 1, result in words.
Sequence of BIR3 domain of cIAP2 (Homo sapiens, UniProt Q13489) (Q13489 245-337 limits assumed): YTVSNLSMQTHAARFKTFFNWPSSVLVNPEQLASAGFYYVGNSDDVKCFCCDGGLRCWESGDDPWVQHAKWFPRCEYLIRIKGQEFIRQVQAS
For assay [7], the target named is T1, BIR3 domain of XIAP.
Setting [8] is: read-out: DELFIA IC50 (nM) cIAP1-BIR3, 2-h incubation, Table 9.
The mark [9] stands for this setting: read-out: DELFIA IC50 (nM) cIAP2-BIR3, 2-h incubation, Table 9.
Where [10] appears, read: read-out: DELFIA IC50 (nM) cIAP2-BIR3, 2-h incubation, Table 7.

Each structure is given as a SMILES string. Like-named read-outs stand apart in the source and are kept apart here. Where a SMILES comes first, the peptide text is derived from it. [ ]: non-standard residue; d: D form. Tyr(SO2F) = N[C@@H](Cc1ccc(OS(=O)(=O)F)cc1)C(=O)O; NMeA = CN[C@@H](C)C(=O)O

Sequence of BIR3 domain of cIAP1 (Homo sapiens, UniProt Q13490) (Q13490 266-352 limits assumed): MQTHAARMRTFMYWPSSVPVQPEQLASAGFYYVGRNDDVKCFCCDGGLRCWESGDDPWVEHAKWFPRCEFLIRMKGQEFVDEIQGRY
T1 sequence (P98170 253-347): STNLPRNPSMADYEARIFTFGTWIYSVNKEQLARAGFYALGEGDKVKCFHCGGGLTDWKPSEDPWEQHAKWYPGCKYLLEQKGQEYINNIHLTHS

As usually defined, the Ki is the dissociation constant of the complex between target and ligand, obtained from inhibition or displacement. The molecule `CN[C@@H](C)C(=O)N[C@H]1CN(C(=O)CC(C)C)CC[C@H]2CC[C@@H](C(=O)NC(c3ccccc3)c3ccccc3)N2C1=O` [AT-406] showed a ΔH of binding at BIR3 domain of XIAP [1] of -6.5 kcal/mol. Moreover, the inhibitory constant (Ki) is 5.1 nM at BIR3 domain of cIAP2 [2], 1.9 nM at BIR3 domain of cIAP1 [3] and 66.4 nM at BIR3 domain of XIAP [4].

Turning to `CN[C@@H](C)C(=O)N[C@@H](Cc1ccc(S(=O)(=O)O)cc1)C(=O)N1CCCC1c1cncc(Cc2ccccc2)n1` (some centres unmarked) [Compound 139H2], the “activity against the Bir3 domain of cIAP1” value at BIR3 domain of cIAP1 [5] is reported as “much less active”. On BIR3 domain of cIAP2 [6], the “activity against the Bir3 domain of cIAP2” value is “much less active”.

On to `CN[C@@H](C)C(=O)N[C@@H](Cc1ccc(S(=O)(=O)O)cc1)C(=O)N1CCCC1C(=O)NC1Cc2ccccc2C1` (some centres unmarked) [Compound 139H3], for which the “activity against the Bir3 domain of cIAP1” value at BIR3 domain of cIAP1 [5] is recorded as “much less active”. For the same molecule, on BIR3 domain of cIAP2 [6], the “activity against the Bir3 domain of cIAP2” value is given as “much less active”.

As a reminder, the IC50 is the concentration that inhibits the measured activity by half. Regarding `CNC(C)C(=O)NC(CNC(=O)c1ccc(S(=O)(=O)F)cc1)C(=O)N1CCCC1C(=O)NC1Cc2ccccc2C1` (centres unmarked) [Compound 142B2, MeHN-A-Dap(4-FSB)-P-(2-aminoindan)], the concentration for half-maximal inhibition (IC50) was around 1000 nM at BIR3 domain of cIAP1 [5] (read-out: DELFIA IC50 (nM) cIAP1-BIR3, 2-h incubation, Table 8); 18.8 nM on BIR3 domain of XIAP [7] (read-out: DELFIA IC50 (nM) XIAP-BIR3, 2-h incubation, Table 8); around 1300 nM on BIR3 domain of cIAP2 [6] (read-out: DELFIA IC50 (nM) cIAP2-BIR3, 2-h incubation, Table 8).

On to `C=CS(=O)(=O)c1ccc(C(=O)NC[C@H](NC(=O)[C@H](C)NC)C(=O)N2CCC[C@H]2C(=O)NC2Cc3ccccc3C2)cc1` [Compound 142B4, MeHN-A-Dap(4-VSB)-P-(2-aminoindan)], for which the IC50 amounted to 5.1 nM at BIR3 domain of cIAP1 [5] (setting [8]); 49.8 nM on BIR3 domain of XIAP [7] (read-out: DELFIA IC50 (nM) XIAP-BIR3, 2-h incubation, Table 9); 1.2 nM on BIR3 domain of cIAP2 [6] (setting [9]).

Take `CN[C@@H](C)C(=O)N[C@@H](Cc1ccc(OS(=O)(=O)F)cc1)C(=O)N1CCC[C@H]1C(=O)N[C@@H](Cc1ccccc1)C(N)=O` [Compound 142B9, MeHN-A-F(OSO2F)-P-F-CONH2] (H-[NMeA][Tyr(SO2F)]PF-NH2): the half-maximal inhibitory concentration (IC50) at BIR3 domain of cIAP2 [6] (setting [10]) and on BIR3 domain of cIAP2 [6] (setting [9]) was 343 nM each time.

As to `CN[C@@H](C)C(=O)N[C@@H](CNC(=O)c1ccc(OS(=O)(=O)F)cc1)C(=O)N1CCC[C@H]1C(=O)N[C@@H](Cc1ccccc1)C(N)=O` [Compound 142B10, MeHN-A-Dap(p-OSO2F-Benzamide)-P-F-CONH2], the IC50 at BIR3 domain of cIAP1 [5] (read-out: DELFIA IC50 (nM) cIAP1-BIR3, 2-h incubation, Table 7) is 335 nM; on BIR3 domain of cIAP2 [6] (setting [10]) it was above 1000 nM.

For the molecule `CN[C@@H](C)C(=O)N[C@@H](Cc1ccc(OS(=O)(=O)F)cc1)C(=O)N1CCC[C@H]1C(=O)NC1Cc2ccccc2C1` [Compound 142C1, MeHN-A-F(OSO2F)-P-2-aminoindan], the figures for the half-inhibitory concentration (IC50) at BIR3 domain of cIAP1 [5] (setting [8]) and at BIR3 domain of cIAP2 [6] (setting [9]) were 316 ± 6.4 nM and 864.1 ± 8.3 nM, respectively.

As to `CNC(C)C(=O)NC(Cc1ccc(OS(=O)(=O)F)cc1)C(=O)N1CCCC1C(=O)NC1CCc2ccccc21` (centres unmarked) [Compound 142C3, MeHN-A-F(OSO2F)-1-P-aminoindan], the 50% inhibitory concentration (IC50) on BIR3 domain of cIAP1 [5] (read-out: DELFIA IC50 (nM) cI4P1-BIR3 2-h, 2-h, Table 10) is 128 nM; at BIR3 domain of cIAP1 [5] (read-out: DELFIA IC50 (nM) cI4P1-BIR3 6-h pre, 2-h, 6-h pre, 2-h, Table 10), 56.9 nM; on BIR3 domain of XIAP [7] (read-out: DELFIA IC50 (nM) XI4P-BIR3 2-h, 2-h, Table 10), 86.7 nM; on BIR3 domain of XIAP [7] (read-out: DELFIA IC50 (nM) XI4P-BIR3 6-h pre, 2-h, 6-h pre, 2-h, Table 10) it was 51.8 nM; at BIR3 domain of cIAP2 [6] (read-out: DELFIA IC50 (nM) cIAP2-BIR3 2-h, 2-h, Table 10), 96 nM; on BIR3 domain of cIAP2 [6] (read-out: DELFIA IC50 (nM) cIAP2-BIR3 6-h pre, 2-h, 6-h pre, 2-h, Table 10), 144 nM.

These data come from patent publication US11590197B2, “Agents targeting inhibitor of apoptosis proteins” (The Regents of the University of California, priority 2017, dated 2023).
